Measured values as given in patent US10806794B2, “Protease inhibitors having enhanced features” (priority 2008, dated 2020).
Where “and” joins values, the source holds several entries; their conditions need not be identical. Equal values may be shown once. Read-outs that look alike come from different tables or passages of the source.

Columns and labels:
[1] = test system: HIV-1RF; assay: p24 levels after single high MOI HIV-1RF infection of CEM-SS cells, time of addition; type: cell-based; conditions: 1 μM
Procedure: The cytoprotective effect against HIV of the PEG-protease inhibitor conjugates was evaluated during a single round of high multiplicity of infection (“MOI”) HIV-1 infection in CEM-SS cells. CEM-SS cells were incubated for one hour with a single high MOI dose of HIV-1RF. Cells were washed to remove free virus, then test compounds were added to cells at 0, 2, 4, 6, 8, 16, or 24 hours after HIV-1 infection. To monitor viral replication, cell supernatants were analyzed at 30 hours post-infection for levels of the HIV capsid protein p24 (FIG. 1). […] Nevirapine inhibited viral replication at 1 μM when added to cells up to four hours post-infection, and at 10 μM when added up to eight hours post-infection.

[2] = test system: HIV-1RF; assay: Pre-exposure assay: CEM-SS cells treated before HIV-1RF infection, cell viability; type: cell-based; conditions: for EC50: Human immunodeficiency virus 1, CEM-SS
Procedure: (§1) The effects of pre- and post-infection PI treatment on CEM-SS toxicity were assessed. […] Cell toxicity was monitored six days after infection using XTT reagent. In the post-exposure assay, test compounds were added to cells 0, 24, 48, or 72 h after HIV-1 infection, and cell viability was measured six days post-infection.

[3] = test system: HIV-1RF; assay: Post-exposure assay: compounds added after HIV-1 infection of CEM-SS cells, cell viability; type: cell-based; conditions: Human immunodeficiency virus 1, CEM-SS
Procedure: as §1

[4] = test system: CEM-SS cells; assay: Pre-exposure assay: toxicity in CEM-SS cells
Procedure: as §1

[5] = test system: HIV-1 virions; assay: Infectivity of HIV-1 virions from treated cells on naive CEM-SS cells; type: cell-based
Procedure: In concert with p24 analysis, cell supernatants collected from cells exposed to test compounds at 8, 16, or 24 hours post-infection were used to infect naïve CEM-SS cells. Cell viability was measured six days post-infection as a measure of virus infectivity (Table 5).

[6] = test system: CEM-SS cells; assay: Post-exposure assay: toxicity in CEM-SS cells
Procedure: as §1

[7] = Plasma protein binding by equilibrium dialysis, human plasma; type: in vitro ADME; conditions: human plasma, 5 μM, fraction unbound; read-out: Plasma Protein Binding Fu ± SD
Method in brief: (§2)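 Test compound solutions (5 μM, final DMSO 0.5%) are made in buffer and in plasma of the relevant species. Plasma solution goes on one membrane side, plasma-free solution on the other. After 2 h at 37 °C, both sides are analysed by LC-MS/MS.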

[8] = biological target: recombinant HIV-1 protease (Human immunodeficiency virus type 1 group M subtype B (isolate HXB2) (HIV-1), UniProt P04585); assay: Enzyme inhibition of purified HIV-1 protease (SensoLyte 520 HIV-Protease Assay Kit); type: biochemical; conditions: read-out: IC50 ± SD
Procedure: Protease inhibitors (PI) are used to treat HIV infection by preventing viral assembly and maturation through the inhibition of HIV-1 protease activity. Biochemical assays were performed to evaluate the potential of PEG-PI conjugates to inhibit HIV-1 protease activity, relative to their respective PI parent molecules. Activity assays were performed at using the SensoLyte 520 HIV-Protease Assay Kit (Anaspec Inc., San Jose, Calif.) and recombinant HIV-1 protease. Protease activity was monitored by the formation of a fluorescent reporter product generated during HIV-1 protease-mediated digestion of a quenched, fluorimetric substrate containing the p17/p24 Pr^gag cleavage site.

[9] = Microsomal protein binding by equilibrium dialysis; type: in vitro ADME; conditions: human liver microsomes, read-out: Microsomal Protein Binding Fu ± SD
Method in brief: (§3)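 Compound at 3 μM final in buffer with or without human liver microsomes, dialysed to equilibrium at 37 °C. Both sides quantified by LC-MS/MS to derive fraction unbound (Fu).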

[10] = Metabolic stability in cryopreserved human hepatocytes; conditions: human, hepatocytes
Procedure: (§4) Metabolism of PI conjugates was investigated by monitoring the levels of unmetabolized parent compound following incubation with cryopreserved human or monkey hepatocytes. The use of whole hepatocytes rather than microsomes requires that the drugs cross the cell membrane to interact with intracellularly-localized metabolic enzymes, and thus provides the most relevant in vitro system for understanding overall metabolic stability of these compounds.
(§5) Test compounds (0.1 μM or 3 μM, as indicated) are incubated with cryopreserved human hepatocytes at a cell density of 0.5×10^6 viable cells/mL. […] Duplicate samples (50 μL) are removed from the incubation mixture at various timepoints up to four hours (for 0.1 μM test compound concentration), or one or two hours (for 3 μM test compound concentration), and the reaction is quenched by the addition of methanol containing internal standard (100 μL). The samples are centrifuged (2500 rpm at 4° C. for 20 min), and the supernatants at each time point pooled for cassette analysis by LC-MS/MS.

[11] = test system: CEM-SS cells; conditions: absence of viral infection
Procedure: To evaluate whether conjugated protease inhibitors retain the ability to protect against HIV-1 infection, CEM-SS cells infected with the RF strain of HIV-1 were treated with test compounds for six days, and then cell viability was monitored using the tetrazolium dye XTT. […] A value for Therapeutic Index (TI) was calculated as TC50/EC50.

[12] = test system: HIV-1 HT/92/599; assay: HIV-1 reverse transcriptase activity after infection of fresh human PBMCs; type: cell-based; conditions: read-out: PBMC/HIV-1HT/92/599 EC50 ± SD; seven days, reverse transcriptase activity
Procedure: (§6) Fresh human peripheral blood mononuclear cells (PBMCs) obtained from a commercial source were purified following centrifugation using a Ficoll-Hypaque density gradient. Viable cells were induced to proliferate in the presence of PHA-P and recombinant human IL-2 for 72 hours. […] Cell supernatant containing HIV-1 viral was incubated for 90 minutes at 37° C. with a reaction mixture containing EGTA, Triton X-100, Tris (pH 7.4), DTT, MgCl2, poly rA, oligo dT, and tritiated thymidine triphosphate (TTP). Incorporation of TTP into DNA was monitored by spotting the reaction mixture onto a DEAE filter mat, followed by washes with 5% phosphate buffer, distilled water, and 70% ethanol, and subsequent drying of the mat. Radioactivity was measured using a Wallac 1450 Microbeta Trilux liquid scintillation counter using Opti-Fluor O. Test compound-associated toxicity was measured in PBMCs cultured for seven days in the absence of virus using XTT reagent. […] TI was calculated as TC50/EC50.

[13] = test system: human plasma proteins; assay: Plasma protein binding by equilibrium dialysis, human plasma; type: in vitro ADME; conditions: human plasma, 5 μM, fraction unbound
Method in brief: as §2

[14] = biological target: CYP2D6 (Homo sapiens (Human), UniProt P10635); assay: Metabolic stability in CYP2D6-expressing Bactosomes; type: in vitro ADME; conditions: 5 μM
Sequence of CYP2D6 (P10635 whole entry, canonical isoform): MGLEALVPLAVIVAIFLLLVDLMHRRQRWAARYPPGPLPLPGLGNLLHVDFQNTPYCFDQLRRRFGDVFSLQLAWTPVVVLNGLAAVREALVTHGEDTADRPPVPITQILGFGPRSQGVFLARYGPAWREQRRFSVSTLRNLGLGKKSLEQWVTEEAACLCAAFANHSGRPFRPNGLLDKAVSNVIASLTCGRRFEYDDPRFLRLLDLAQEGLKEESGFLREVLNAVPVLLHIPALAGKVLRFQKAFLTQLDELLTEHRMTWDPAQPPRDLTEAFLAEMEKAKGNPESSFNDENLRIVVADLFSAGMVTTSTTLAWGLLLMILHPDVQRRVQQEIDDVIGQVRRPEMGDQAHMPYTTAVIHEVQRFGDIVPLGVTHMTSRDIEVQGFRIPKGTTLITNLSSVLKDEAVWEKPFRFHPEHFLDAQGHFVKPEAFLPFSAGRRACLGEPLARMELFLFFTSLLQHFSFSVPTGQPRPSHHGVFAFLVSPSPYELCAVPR
Procedure: (§7) Compounds were evaluated for their propensity to act as substrates of individual human cytochrome P450 enzymes using a bacterial membrane preparation co-expressing human NADPH-cytochrome P450 reductase with either human CYP3A4 or CYP2D6 (Bactosomes™ Cypex, Ltd., Dundee, UK). In vitro metabolism studies using Bactosomes™ expressing individual human CYP isoforms monitor the extent to which a test compound is metabolized by a single CYP450 enzyme and allow identification of the CYP isoforms that may be responsible for the metabolism of a test compound. Timecourse analyses of test molecules (5 μM) with CYP2D6- or CYP3A4-expressing Bactosomes™ (100 pmol/mL) are performed in buffer (0.1 M phosphate, pH 7.4) in a final reaction volume of 25 μL. […] Reactions are terminated by the addition of methanol (50 μL) containing internal standard at 0, 5, 15, 30, and 45 minutes.

[15] = Metabolic stability in human liver microsomes; conditions: human liver microsomes, 3 μM
Procedure: The human liver microsome-mediated biotransformation of PEG-PI compounds was determined by monitoring the loss of the substrate as a function of time. […] Test compounds (3 μM final concentration) were preincubated with pooled (male and female) human liver microsomes (0.5 mg/mL final protein concentration) in buffer (0.1M phosphate buffer, pH 7.4) at 37° C. Reactions were initiated by the addition of NADPH (1 mM final concentration), and allowed to continue for 0, 5, 15, 30, and 45 minutes. […] Sample supernatants are analyzed by liquid chromatography-tandem mass spectrometry.

[16] = test system: PBMCs; assay: Toxicity in PBMCs cultured without virus (XTT)
Procedure: as §6, with “mat.” for “mat. Radioactivity was measured using a Wallac 1450 Microbeta Trilux liquid scintillation counter using Opti-Fluor O. Test compound-associated toxicity was measured in PBMCs cultured for seven days in the absence of virus using XTT reagent.”

[17] = test system: human liver microsomal proteins; assay: Microsomal protein binding by equilibrium dialysis; type: in vitro ADME; conditions: human liver microsomes, 3 μM, fraction unbound
Method in brief: as §3

[18] = biological target: T1, CYP3A4 (Homo sapiens (Human), UniProt P08684); assay: Metabolic stability in CYP3A4-expressing Bactosomes; type: in vitro ADME; conditions: 5 μM
T1 sequence (P08684 whole entry): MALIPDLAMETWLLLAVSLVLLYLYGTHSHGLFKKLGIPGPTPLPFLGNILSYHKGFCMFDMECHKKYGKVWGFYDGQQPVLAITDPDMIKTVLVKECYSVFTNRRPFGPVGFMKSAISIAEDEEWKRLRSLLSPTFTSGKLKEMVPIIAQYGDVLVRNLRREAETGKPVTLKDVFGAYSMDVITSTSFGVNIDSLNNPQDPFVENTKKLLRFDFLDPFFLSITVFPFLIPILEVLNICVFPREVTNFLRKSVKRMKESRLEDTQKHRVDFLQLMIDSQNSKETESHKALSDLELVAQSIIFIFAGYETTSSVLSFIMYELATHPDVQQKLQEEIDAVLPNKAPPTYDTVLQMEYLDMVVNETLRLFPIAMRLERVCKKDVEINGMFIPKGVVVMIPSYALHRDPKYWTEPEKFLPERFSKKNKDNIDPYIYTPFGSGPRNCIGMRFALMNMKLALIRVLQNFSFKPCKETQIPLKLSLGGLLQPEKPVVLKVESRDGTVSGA
Procedure: as §7

[19] = biological target: T1, CYP3A4; assay: CYP450 inhibition in human liver microsomes: CYP3A4;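 note: incubation at 37 °C started by adding 1 mM NADPH, with formation of the probe metabolite measured via LC-MS/MS or fluorescent detection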
[20] = test system: human hepatocytes; assay: Metabolic stability in cryopreserved human hepatocytes; conditions: human hepatocytes, 3 uM, incubated up to one hour
Procedure: as §4, §5

## Cc1ccnc2c1NC(=O)c1cccnc1N2C1CC1 [Nevirapine]
[1]
  time of addition up to which antiviral activity (reduced p24) was seen: up to four
[2]; 2 h
  EC50: 470 nM
[2]; 8 h
  EC50: 200 nM
[2]; 24 h
  EC50: 640 nM
[2]; in words
  EC50 values after pre-treatment of cells: sub-micromolar
[3]; 0 h
  EC50: 5 nM
[3]; 24 h
  EC50: 10 nM
[3]; 48 h
  EC50: 50 nM
[3]; 72 h
  EC50: 200 nM
[4]; exposure 2 h pre-infection
  TC50: >1000 nM
[4]; exposure 8 h pre-infection
  TC50: >1000 nM
[4]; exposure 24 h pre-infection
  TC50: >1000 nM
[5]; 0.1 μM, added 8 h post-infection
  Percent Infectivity of HIV-1 Virions in comparison to virus-alone control: 100.0%
[5]; 0.1 μM, added 16 h post-infection
  Percent Infectivity of HIV-1 Virions in comparison to virus-alone control: 117.0%
[5]; 0.1 μM, added 24 h post-infection
  Percent Infectivity of HIV-1 Virions in comparison to virus-alone control: 128.0%
[5]; 1 μM, added 8 h post-infection
  Percent Infectivity of HIV-1 Virions in comparison to virus-alone control: 100.0%
[5]; 1 μM, added 16 h post-infection
  Percent Infectivity of HIV-1 Virions in comparison to virus-alone control: 100.0%
[5]; 10 μM, added 8 h post-infection
  Percent Infectivity of HIV-1 Virions in comparison to virus-alone control: 10.0%
[5]; 10 μM, added 24 h post-infection
  Percent Infectivity of HIV-1 Virions in comparison to virus-alone control: 177.8%
[6]; drug addition 0 h post-infection
  TC50: >1000 nM
[6]; drug addition 24 h post-infection
  TC50: >1000 nM
[6]; drug addition 48 h post-infection
  TC50: >1000 nM
[6]; drug addition 72 h post-infection
  TC50: >1000 nM

## CCC[C@@]1(CCc2ccccc2)CC(O)=C([C@H](CC)c2cccc(NS(=O)(=O)c3ccc(C(F)(F)F)cn3)c2)C(=O)O1 [Tipranavir, reference compound]
[7]
  fraction unbound at 2 h, 5 μM: 0.00866 ± 0.0013
[8]
  IC50: 7.2 nM and 1.96 nM
[9]
  fraction unbound at 3 μM: 0.302 ± 0.0853
[10]
  hepatocyte CLint at 3 μM: 0.111 ± 0.643 µL/min/1e6 cells
[11]
  CEM-SS TC50 ± SD: 30600 nM and 40700 nM

## COCCOCCOCCOC(=O)N[C@@H](C(=O)NC(Cc1ccccc1)[C@@H](O)CN(Cc1ccc(-c2ccccn2)cc1)NC(=O)[C@H](NC(=O)OCCOCCOCCOC)C(C)(C)C)C(C)(C)C (stereo partly drawn) [di-mPEG3-Atazanavir]
[12]
  EC50: 390 ± 60 nM
[13]
  Plasma Protein Binding Fu ± SD: 0.376 ± 0.00639
[14]
  2D6 t1/2 ± SEM: 2.18 ± 0.808 h
[15]
  CLint ± SEM: 190 ± 18.3 μL/min/mg protein
  t1/2: 7.31 min
[16]
  PBMC TC50 ± SD: 146000 nM
[17]
  Microsomal Protein Binding Fu ± SD: highly unbound
[18]
  3A4 t1/2 ± SEM: 1.6 ± 0.457 h
[19]; read-out: CYP3A4 IC50 Midazolam, probe substrate midazolam
  IC50: > 50000 nM
[19]; read-out: CYP3A4 IC50 Testosterone, probe substrate testosterone
  IC50: 23400 nM
[20]
  CLint ± SEM: 3.46 ± 0.896 μL/min/10^6 cells
